Entries after “also recorded” stand apart in the source; their conditions may differ.
test system: NCI-60 cell lines; format: cell-based, human

Row | Substance | Cell Line (NCI-60 cell line the peptide is associated with) | Cell Line with which the peptide (and its tripeptide motif) is associated | Cell Line (NCI-60 cell line the peptide and its motif are associated with) | Cell Line the peptide is associated with (peptide recovered from phage library selection on this NCI-60 cell line)
1 | RLSALTD | HT-29 Colon | – | – | –
2 | AGGIWIR | KM-12C Colon | – | – | –
3 | QMQGRAV | – | H226-Lung | – | –
4 | AGSGFPF | HT-29 Colon | – | – | –
5 | HPSMGGR | – | Hop-62-Lung | – | –
6 | PRSSYNE | – | H460-Lung | – | –
7 | MSNLAAV | COLO-205-Colon | – | – | –
8 | FGIGRGV | – | – | SK-MEL-5 Melanoma | –
9 | GGLRGVR | – | A549-Lung | – | –
10 | NAVRGSA | HCT-116 Colon | – | – | –
11 | WWGLGWL | HCC-2998-Colon | – | – | –
12 | PTGEGLR | – | – | SK-MEL-5 Melanoma | –
13 | YRVSSGS | SNB-75 CNS | – | – | –
14 | GLVGFTG | – | Hop-62-Lung | – | –
15 | GVSISDG | – | – | – | SN12C Renal
16 | KYYGLRR | – | RPMI-8226-Leukemia | – | –
17 | NKGGLRQ | – | – | SK-OV-3-3 Ovarian | –
18 | PPGGLKW | SW620-Colon | – | – | –
19 | FSLGSSP | – | – | – | UO31 Renal
20 | VLRSALQ | KM-12C Colon | – | – | –
21 | ANGSSKK | – | – | – | MDA-MB-231 Breast
22 | FAWGGRG | – | K-562-Leukemia | – | –
23 | GLLSAGI | SF-268 CNS | – | – | –
24 | FMGAGFA | – | HL-60-Leukemia | – | –
25 | VGLRVRF | – | – | – | BT-549 Breast

Row | Substance | Cell Line (NCI-60 cell line the peptide is associated with) | Cell Line with which the peptide (and its tripeptide motif) is associated | Cell Line (NCI-60 cell line the peptide and its motif are associated with) | Cell Line the peptide is associated with (peptide recovered from phage library selection on this NCI-60 cell line)
26 | PYRRGSC | – | – | – | MDA-MB-231 Breast
27 | RGVSLKG | – | H226-Lung | – | –
28 | SGVRLTG | HT-29 Colon | – | – | –
29 | SEQRGGL | – | – | – | ACHN Renal
30 | AIMGAGL | – | – | OVCAR-8 Ovarian | –
31 | RGPSQVL | – | – | PC3 Prostate | –
32 | DDGRVHR | – | – | – | BT-549 Breast
33 | NLRGSRS | – | – | SK-MEL-2 Melanoma | –
34 | DVVGVLK | SF-268 CNS | – | – | –
35 | VLLSAGL | – | – | – | RXF393 Renal
36 | GLGALRW | – | – | – | NCI/ADR-RES Breast
37 | RDLRVHL | – | – | UACC62 Melanoma | –
38 | GRGVTIW | HT-29 Colon | – | – | –
39 | TAAGSSF | – | – | – | HS 578 T Breast
40 | RIGAGHR | – | – | PC3 Prostate | –
41 | WVGSSKF | – | A549-Lung | – | –
42 | AGIARGG | – | Hop-92-Lung | – | –
43 | PGKRGVQ | – | H460-Lung | – | –
44 | LRLSGHD | – | – | – | NCI/ADR-RES Breast
45 | LPLGLVS | – | – | – | T-47D Breast
46 | SAVSESP | – | – | SK-OV-3-3 Ovarian | –
47 | GPFRAVP | COLO-205-Colon | – | – | –
48 | PNSAGSV | – | – | – | SN12C Renal
49 | PLQRGSG | – | – | – | BT-549 Breast
50 | PLAVGLV | HCT-116 Colon | – | – | –

Row | Substance | Cell Line (NCI-60 cell line the peptide is associated with) | Cell Line with which the peptide (and its tripeptide motif) is associated | Cell Line (NCI-60 cell line the peptide and its motif are associated with) | Cell Line the peptide is associated with (peptide recovered from phage library selection on this NCI-60 cell line)
51 | WAGSNYS | SNB-75 CNS | – | – | –
52 | HADVLVS | – | – | DU-145 Prostate | –
53 | FAGAGVR | – | – | SK-OV-3-3 Ovarian | –
54 | WRGGLDR | – | – | – | MCF-7 Breast
55 | LLRRAVF | – | Hop-62-Lung | – | –
56 | LGSSSHI | – | – | – | NCI/ADR-RES Breast
57 | LPLLRGI | – | HL-60-Leukemia | – | –
58 | GVAGGAT | SW620-Colon | – | – | –
59 | LRSSLVS | – | – | – | RXF393 Renal
60 | SHHRSSI | – | – | – | SN12C Renal
61 | RVGSVQW | KM-12C Colon | – | – | –
62 | GGSALFG | HT-29 Colon | – | – | –
63 | RLHYLRS | – | – | M14 Melanoma | –
64 | AAVGTAL | – | – | – | RXF393 Renal
65 | GRVRETP | – | – | UACC62 Melanoma | –
66 | AARAVWG | – | – | – | RXF393 Renal
67 | DWGSRGV | – | – | – | MDA-MB-231 Breast
68 | SVTGRVS | – | – | 786-0 Renal | –
69 | LASLGVG | – | H23-Lung | – | –
70 | QTLSAGG | SF-295 CNS | – | – | –
71 | ERGVFVY | – | – | – | T-47D Breast
72 | GGAVLVA | – | CCRF-CEM Leukemia | – | –
73 | GGVSPVD | – | A549-Lung | – | –
74 | AAGRIRP | HCT-15 Colon | – | – | –
75 | SSGPRSS | – | Hop-62-Lung | – | –

Row | Substance | Cell Line (NCI-60 cell line the peptide is associated with) | Cell Line with which the peptide (and its tripeptide motif) is associated | Cell Line (NCI-60 cell line the peptide and its motif are associated with) | Cell Line the peptide is associated with (peptide recovered from phage library selection on this NCI-60 cell line)
76 | PGGSDAA | SNB-19 CNS | – | – | –
77 | PFHRRAV | – | – | – | T-47D Breast
78 | GRGGSGY | HT-29 Colon | – | – | –
79 | GLGRSVN | – | – | – | T-47D Breast
80 | GLVTAPL | COLO-205-Colon | – | – | –
81 | VAGRLQM | – | – | OVCAR-4 Ovarian | –
82 | CHARGVT | – | Molt-4-Leukemia | – | –
83 | AALLRAV | – | – | OVCAR-4 Ovarian | –
84 | LMGRASG | – | SR Leukemia | – | –
85 | GKGMGLG | – | – | OVCAR-5 Ovarian | –
86 | WAGLSPS | – | Hop-92-Lung | – | –
87 | VAELLSM | – | – | OVCAR-5 Ovarian | –
88 | RAAGRVG | HCT-15 Colon | – | – | –
89 | SRGSYGS | – | – | – | MDA-MB-435-Breast
90 | GGGLPVD | – | – | – | MDA-MB-231 Breast
91 | TFAGRSL | – | – | A498 Renal | –
92 | SGGDGSV | SNB-75 CNS | – | – | –
93 | GVGGRQS | – | – | – | TK-10 Renal
94 | SRLSYCN | – | – | OVCAR-4 Ovarian | –
95 | HRVSESV | – | – | OVCAR-5 Ovarian | –
96 | LACRGPS | – | – | PC3 Prostate | –
97 | HFIRGSV | HT-29 Colon | – | – | –
98 | ARGVAEY | SF-295 CNS | – | – | –
99 | SSRPGSS | – | Hop-62-Lung | – | –
100 | ASLRYYV | – | SR Leukemia | – | –

Row | Substance | Cell Line (NCI-60 cell line the peptide is associated with) | Cell Line with which the peptide (and its tripeptide motif) is associated | Cell Line (NCI-60 cell line the peptide and its motif are associated with) | Cell Line the peptide is associated with (peptide recovered from phage library selection on this NCI-60 cell line)
101 | LPCGGLA | SNB-19 CNS; also recorded: SF-539 CNS | – | – | –
102 | NGRGSGW | – | HL-60-Leukemia | – | –
103 | VGIGAGG | – | – | – | T-47D Breast
104 | FAQRRVS | – | – | – | SN12C Renal
105 | YGIGVRL | – | H23-Lung | – | –
106 | RRPGLRS | HT-29 Colon | – | – | –
107 | STSLGAG | – | H322-Lung | – | –
108 | PGLRGPA | – | – | OVCAR-4 Ovarian | –
109 | GGGSGGG | – | – | OVCAR-4 Ovarian | –
110 | ANASGVR | – | – | M14 Melanoma | –
111 | REAERVS | – | H322-Lung | – | –
112 | VMGAGVQ | – | – | – | ACHN Renal
113 | WGAGLDA | – | – | OVCAR-4 Ovarian | –
114 | ADGRLRY | KM-12C Colon | – | – | –
115 | AIRAGSD | – | K-562-Leukemia | – | –
116 | GGSSLDA | HCT-116 Colon | – | – | –
117 | ERGSPSR | – | H460-Lung | – | –
118 | LGRVHVW | HT-29 Colon | – | – | –
119 | AGRGAGG | – | – | OVCAR-4 Ovarian | –
120 | AGGRLGL | SF-268 CNS | – | – | –
121 | FFPAGGP | – | EKVX-Lung | – | –
